Measurements as given in patent publication US11020358B2, “Method for the anti-senescence of and/or rejuvenating stem cells” (GWO XI STEM CELL APPLIED TECHNOLOGY CO., LTD., priority 2014, dated 2021).

Legend:
ADSCs [1] = assay: Analysis of proliferation rate (Ki67 staining); format: cell-based, human
Experimental: Four portions of equal volume of the above culture medium containing the sub-cultured ADSCs were separately handled by adding thereinto H2O2 (purchased from Sigma-Aldrich) at a final concentration of 100 μM and reacting for 2 hours to induce senescence of the ADSCs, replacing the culture medium with a fresh culture medium, adding thereinto TC (trans-cinnamaldehyde, purchased from Sigma-Aldrich) at a final concentration of 0, 2, 4 or 6 μM and reacting for 6 hours, so as to obtain “H2O2 group (i.e., treated with H2O2 for 2 hours, but not treated with TC),” “H2O2+TC2 group (i.e., treated with H2O2 for 2 hours and then treated with 2 μM of TC for 6 hours),” “H2O2+TC4 group (i.e., treated with H2O2 for 2 hours and then treated with 4 μM of TC for 6 hours),” and “H2O2+TC6 group (i.e., treated with H2O2 for 2 hours and then treated with 6 μM of TC for 6 hours)” ADSCs. Samples of the “untreated group,” “H2O2 group,” and “H2O2+TC6 group” ADSCs obtained from Example 1 (1) were washed with phosphate buffered saline (PBS) twice, fixed with 3.7% formaldehyde, and blocked with 10% FBS (diluted in PBS). Then, the cells of each sample were washed with PBS once, and reacted with a Ki67 antibody (purchased from Novus biological) at 4° C. overnight. […]

ADSCs [2] = assay: Semiquantitative RT-PCR of senescence, cell cycle and pluripotency genes in ADSCs; format: cell-based, human
Experimental: Four portions of equal volume of the above culture medium containing the sub-cultured ADSCs were separately handled by adding thereinto H2O2 (purchased from Sigma-Aldrich) at a final concentration of 100 μM and reacting for 2 hours to induce senescence of the ADSCs, replacing the culture medium with a fresh culture medium, adding thereinto TC (trans-cinnamaldehyde, purchased from Sigma-Aldrich) at a final concentration of 0, 2, 4 or 6 μM and reacting for 6 hours, so as to obtain “H2O2 group (i.e., treated with H2O2 for 2 hours, but not treated with TC),” “H2O2+TC2 group (i.e., treated with H2O2 for 2 hours and then treated with 2 μM of TC for 6 hours),” “H2O2+TC4 group (i.e., treated with H2O2 for 2 hours and then treated with 4 μM of TC for 6 hours),” and “H2O2+TC6 group (i.e., treated with H2O2 for 2 hours and then treated with 6 μM of TC for 6 hours)” ADSCs.
The total cellular RNA of the ADSCs, BMMSCs and WJSCs in each sample of the group obtained from Example 1 (1) were extracted with an RNeasy Mini kit (purchased from Qiagen), and then reverse transcribed into cDNA by a reverse transcription kit (RT Pre Mix, purchased from iNtRON Biotechnology).
Each of the cDNA of the ADSCs of “untreated group,” “H2O2 group” and “H2O2+TC6 group” from Experiment (3-1) was handled as follows. […] The mixture was then placed in a revers transcription polymerase chain reaction (RT-PCR) machine. The RT-PCR reaction conditions were set as follows: i) 94° C. for 30 seconds, 55° C. for 30 seconds, and […] for 60 seconds, repeated for 30 cycles; ii) 72° C. for 10 minutes; and iii) cooling to 4° C. to stop the reaction. The RT-PCR product was analyzed by 2% agarose gel electrophoresis at a voltage of 100 volts for 30 minutes. Then, the gel was stained with ethidium bromide (EtBr) for 10 minutes, and photographed by a gel image documentation system (DOC PRINT DP-001FDC, VilberLourmat France).

WJSCs = assay: SA-β-gal activity assay in WJSCs; format: cell-based
Experimental: Three portions of equal volume of the above culture medium containing the sub-cultured WJSCs were provided. The first and second portions were handled by adding thereinto H2O2 at a final concentration of 100 μM, reacting for 2 hours to induce senescence of the WJSCs, replacing the culture medium with a fresh culture medium, adding thereinto TC at final concentrations of 0 and 6 μM, respectively, and reacting for 6 hours to obtain “H2O2 group (i.e., treated with H2O2 for 2 hours, but not treated with TC)” and “H2O2+TC6 group (i.e., treated with H2O2 for 2 hours and then treated with 6 μM of TC for 6 hours) WJSCs. The third portion without any treatment was referred to as “untreated group” WJSCs.
The ADSCs in each sample of the group obtained from Example 1 (1) were washed with PBS twice, fixed with 3% formaldehyde and washed with PBS once. […]
The staining solution was removed. […] The cells were observed and photographed under a microscope with 10-fold magnification, and the percentage of SA-β-gal activity-positive cells was calculated. […]

[3] = H2O2+TC6 group ADSCs compared to H2O2 group
[4] = H2O2 group ADSCs compared to untreated group

Row | Compound | number of the Ki67-positive cells (ADSCs [1]; H2O2+TC6 group ADSCs (6 μM TC 6 h after H2O2)) | expression level of the NANOG gene (semiquantitative RT-PCR) (ADSCs [2]; [3]) | expression level of the OCT4 gene (semiquantitative RT-PCR) (ADSCs [2]; [3]) | expression level of the SIRT1 gene (semiquantitative RT-PCR) (ADSCs [2]; [3]) | expression level of the p21 gene (semiquantitative RT-PCR) (ADSCs [2]; [3]) | expression level of the p53 gene (semiquantitative RT-PCR) (ADSCs [2]; [3]) | number of the SA-β-gal activity-positive WJSCs (WJSCs; H2O2+TC6 group (6 μM TC 6 h after H2O2) compared to H2O2 group) | number of the Ki67-positive cells (ADSCs [1]; H2O2 group ADSCs (100 μM 2 h), compared to untreated group) | expression level of the SIRT1 gene (semiquantitative RT-PCR) (ADSCs [2]; [4]) | expression level of the p21 gene (semiquantitative RT-PCR) (ADSCs [2]; [4]) | expression level of the p53 gene (semiquantitative RT-PCR) (ADSCs [2]; [4]) | number of the SA-β-gal activity-positive WJSCs (WJSCs; H2O2 group (100 μM 2 h) compared to untreated group)
1 | O=C/C=C/c1ccccc1 [TC, trans-cinnamaldehyde] | increased to be similar to that in “untreated group” | did not show significant difference | did not show significant difference | significantly increased | significantly decreased | significantly decreased | significantly reduced | – | – | – | – | –
2 | OO [H2O2, reference compound] | – | – | – | – | – | – | – | significantly reduced | significantly decreased | significantly increased | significantly increased | significantly increased
